System: continuously hydrated rats
Assay: Antidiuresis test in continuously hydrated rats with additional water loading (oral administration)
Format: in vivo, rat
Settings: for urine production after additional water loads: groups with additional water loads (15 mL/kg at two and three hours after administration); for urine production after additional water loads / urine production: FIG. 1; for urine production: groups without additional water loads, two hours after administration, maintained until four hours; for change in plasma sodium level (in words): three hours and four hours after administration, additional water loads
Description: Male Wistar rats were used in the test. Initially, water load with 15 mL/kg of distilled water was forcedly administered to the rats. Every 30 minutes after loading water, urine volume collected during 30 minutes was measured and distilled water was forcedly administered to the rats in an amount equal to the urine volume excreted during the last 30 minutes. This water load procedure was repeated to the termination of the test to maintain the diuretic state. […] The individual groups were further divided into two subgroups, and additional distilled water of 15 mL/kg load was forcedly administered to one of the subgroups two times, i.e. at two hours and three hours after the administration. For comparison, the Vehicle group administered only with the vehicle was also subjected to the additional administrations of water load. Blood was collected from a half of the rats in each group subjected to additional administrations of water load, at three hours after the administration (immediately before the second additional water load) and from the other half at four hours after the administration, and plasma sodium levels were measured with an automatic electrolyte analyzer to determine the plasma sodium levels at three hours and four hours after the administration, respectively (each group consisted of seven to eight rats). Changes in the urine volume in individual groups are shown in FIG. 1, and the plasma sodium levels of the group administered with additional water loads are shown in Table 4.

| change in plasma sodium level (in words) | Compound | urine production after additional water loads | urine production |
| --- | --- | --- | --- |
| slightly decreased | CCSC[C@H](N)[C@](O)(Cc1cc(O[C@H]2CC[C@H](C)CC2)ccn1)C(=O)O [EX-b, (2R,3R)-3-amino-4-(ethylsulfanyl)-2-hydroxy-2-({4-[(trans-4-methylcyclohexyl)oxy]pyridin-2-yl}methyl)butanoic acid] | resumed after administration of the additional water loads | almost stopped |
| slightly decreased | CC(C)C[C@H](N)[C@](O)(Cc1cc(O[C@H]2CC[C@H](C)CC2)ccn1)C(=O)O (relative stereo) [EX-a] | resumed after administration of the additional water loads | almost stopped |

| Compound | change in plasma sodium level (in words) | urine production after additional water loads | urine production |
| --- | --- | --- | --- |
| NC(=O)CC[C@@H]1NC(=O)[C@H](Cc2ccccc2)NC(=O)[C@H](Cc2ccc(O)cc2)NC(=O)CCSSC[C@@H](C(=O)N2CCC[C@H]2C(=O)N[C@H](CCCN=C(N)N)C(=O)NCC(N)=O)NC(=O)[C@H](CC(N)=O)NC1=O [dDAVP, Desmopressin, reference compound] | more significant decreases | urine production was not resumed | almost stopped |

Source: patent US10975091B2, “Pyridine derivative” (Astellas Pharma Inc., priority 2014, dated 2021)
